The subject of data set [1] is hepatocyte. The data set can be described thus: Cell proliferation inhibition, modified MTT assay (Cell Counting Kit-8). Type of data set: cell-based. Conditions: hepatocyte line, incubation for 72 hours, average±SD of 3 independent experiments. The protocol: (§1) The proliferation inhibitory action in leukemia cell lines was evaluated using a modified dimethyl-thiazole-diphenyl-tetrazolium (MTT) assay as follows.
(§2) The hepatocyte line and leukemia cell lines (K562, BV173, Ba/F3 p190, Ba/F3 p210, MYL-R, K562-IMR, and KBM5-STI) were used in this example. The FA-HP-β-CyD synthesized in Example 1 was used.
(§3) The cell viability was evaluated using the trypan blue dye exclusion method. Cell proliferation was evaluated using a Cell Counting Kit-8 (Dojindo, Japan), which is an MTT assay. 2×10^4 of each cell was seeded with 100 μL RPMI1640 medium (Sigma-Aldrich, USA) per well to a flatbottom 96-well plate (Greiner Labortechnik, Hamburg, Germany), and incubation for 72 hours was carried out with exposure to HP-β-CyD and FA-HP-β-CyD at different concentrations (0 mM (control: CT), 0.05 mM, 0.1 mM, 0.25 mM, 0.5 mM, and 1 mM).

Data set [2] deals with Ba/F3 P210. The description is as above. Conditions: Ba/F3 P210, incubation for 72 hours, average±SD of 3 independent experiments. Type of data set: cell-based. The procedure: as §1, §2, §3
For data set [3], the system named is K562-IMR. The description is as above. Particulars: incubation for 72 hours, average±SD of 3 independent experiments. Type of data set: cell-based. The procedure:
as §1, §2, §3

Data set [4] has as its system MYL-R. The description is as above. Type of data set: cell-based. Particulars: incubation for 72 hours, average±SD of 3 independent experiments. The protocol:
as §1, §2, §3

Data set [5] concerns KBM5-STI. The description is as above. In kind it is cell-based. Conditions: incubation for 72 hours, average±SD of 3 independent experiments. The protocol:
as §1, §2, §3

For data set [6], the system named is K562. The description is as above. Type of data set: cell-based. Conditions: K562, incubation for 72 hours, average±SD of 3 independent experiments. The procedure: as §1, §2, §3
The subject of data set [7] is Ba/F3 P190. The description is as above. Type of data set: cell-based. Particulars: Ba/F3 P190, incubation for 72 hours, average±SD of 3 independent experiments. The procedure:
as §1, §2, §3

For data set [8], the system named is BV173. The data set is described as above. Type of data set: cell-based. Conditions: BV173, incubation for 72 hours, average±SD of 3 independent experiments. The protocol: as §1, §2, §3
In data set [9] the test system is K562. The data set can be described thus: Effect of autophagy inhibition on the cell proliferation inhibitory effect. In kind it is cell-based. Particulars: 5 mM FA-HP-β-CyD or 15 mM HP-β-CyD, chloroquine, bafilomycin A1 or LY294002 (FIG. 8). The protocol:
(§4) The effect of autophagy inhibition on the cell proliferation inhibitory effect was evaluated as follows.
(§5) Leukemia cell lines (K562 and BV173) were used in this example. The FA-HP-β-CyD synthesized in Example 1 was used.
(§6) 2×10^5 of each cell with 100 μL RPMI1640 medium (Sigma-Aldrich, USA) was seeded per well to a flatbottom 96-well plate (Greiner Labortechnik, Hamburg, Germany), and treatment was carried out for 2 hours at 37° C. with 5 mM FA-HP-β-CyD and 15 mM HP-β-CyD. Pretreatment was then carried out for 24 hours with the autophagy inhibitors chloroquine (20 μM) (FUJIFILM Wako Pure Chemical Corporation), bafilomycin A1 (1 nM) (Funakoshi), or LY294002 (50 μM) (FUJIFILM Wako Pure Chemical Corporation). Cell proliferation was then evaluated using a Cell Counting Kit-8 (Dojindo, Japan), which is a modified dimethyl-thiazole-diphenyl-tetrazolium (MTT) assay.
(§7) Here, the “CT” in FIG. 8 was evaluated as follows. Thus, 2×10^5 of each cell with 100 μL RPMI1640 medium was seeded per well to a flatbottom 96-well plate and culture was carried out for 2 hours+24 hours as in the exposure groups, but without exposure to the agent or autophagy inhibitor, and this was used as the CT. This CT was compared with the exposure groups.
(§8) Significant difference was determined as follows. That is, the data were analyzed using a two-sided Student's t-test without a comparison table. A value of P<0.05 was considered to indicate a significant difference.

Data set [10] relates to BV173. The data set is described as above. Conditions: 5 mM FA-HP-β-CyD or 15 mM HP-β-CyD, chloroquine, bafilomycin A1 or LY294002 (FIG. 8). Type of data set: cell-based. The protocol: as §4, §5, §6, §7, §8
For data set [11], the system named is A549. The data set can be described thus: Proliferation inhibitory action on low folate receptor-expressing cells (MTT assay). Type of data set: cell-based, human. Conditions: A549, 2.5-10 mM, 72 hours (FIG. 3). The procedure: The proliferation inhibitory action on A549, a low folate receptor-expressing cell, was evaluated as follows.
A human non-small cell lung cancer cell line (A549) was used in this example. The FA-HP-β-CyD synthesized in Example 1 was used.
For cell proliferation, 2×10^4 cells of the […] were seeded with 100 μL DMEM medium (Sigma-Aldrich, USA) per well to a flatbottom 96-well plate (Greiner Labortechnik, Hamburg, Germany), and incubation for 72 hours was carried out with exposure to HP-β-CyD and FA-HP-β-CyD at different concentrations (0 mM (control: CT), 2.5 mM, 5 mM, 7.5 mM, and 10 mM). Evaluation was then carried out using a dimethyl-thiazole-diphenyl-tetrazolium (MTT) assay (Nacalai Tesque, Japan).

Data set [12] has as its system BV173. As to the kind of experiment: Cellular uptake of TRITC-labelled CyD, confocal microscopy. Conditions: confocal microscopy (FIG. 6). Type of data set: cell-based. The protocol: The cellular uptake of FA-HP-β-CyD was evaluated as follows.
A leukemia cell line (BV173) was used in this example. The FA-HP-β-CyD synthesized in Example 1 was used.
10 mg HP-β-CyD or FA-HP-β-CyD and 1 mg of TRITC were dissolved in 400 μL of dimethyl sulfoxide (DMSO) with stirring for 24 hours and the solution was then gradually poured into acetone. A precipitate was obtained and was washed with water. This was freeze-dried to prepare TRITC-HP-β-CyD and TRITC-FA-HP-β-CyD.
The cells were then cultured at a cell density of 4×10e5 per well on a 6-well plate and were incubated with […], TRITC-HP-β-CyD, FA-HP-β-CyD, or HP-βCyD at different concentrations. A Zeiss LSM880 confocal microscope was used to observe the cells. Imaris (Zeiss) fluorescent image analysis software was used for analysis.
The Control refers to incubation at the same time as the other exposure groups, but without exposure to an agent. Cell localization was stained by DAPI and the cell membrane was stained with PlasMen Bright Green, and the cellular uptake of TRITC-FA-HP-β-CyD was evaluated using confocal microscopy.

Data set [13] concerns BV173 cells (leukemia cells). The data set can be described thus: Ventricular invasion mouse model (leukemic invasion of the central nervous system). In kind it is in vivo, BRJ mice. Conditions: HP-β-CyD 30 mg/kg. The protocol:
Here, the effect of HP-β-CyD and FA-HP-β-CyD on leukemic central nervous system invasion was test by constructing a mouse model.
BRJ mice (female) were anesthetized (intraperitoneal administration (IP) of 100 μL of a triple anesthetic of medetomidine hydrochloride (0.75 mg/kg), mitazolam (4 mg/kg), and butorphanol tartrate (5 mg/kg)), and intrathecal transplantation was carried out, through the right coronal suture at a point 1 mm to the right of the center line defined by the sagittal suture, with a polyethylene stop tube-equipped microsyringe designed to inject BV173 cells (leukemia cells) precisely to a depth of 3 mm using a Hamilton syringe LT type needle tip style pst-3 and 25 gauge.
The FA-HP-β-CyD synthesized in Example 1 was used in this example.
The doses were set at 30 mg/kg for HP-β-CyD and 3 mg/kg for FA-HP-β-CyD by referring to the dose of HP-β-CyD for a mouse model of the hereditary lipid storage disease Niemann-Pick disease type C (NPC) (Int. J. Mol. Sci. 2021, 22, 452. https://doi.org/10.3390/ijms22010452).
as §8

The values below come from US20250213603A1, “PHARMACEUTICAL COMPOSITION FOR TREATING CANCER” (SAGA UNIVERSITY, priority 2021, published 2025).

The IC50 is the point on the concentration scale where inhibition reaches its midpoint. Low values mean inhibition by little substance, high ones a need for much substance. Regarding “2-hydroxypropyl-β-cyclodextrin [HP-β-CyD, reference compound]”, the IC50 in data set [1] came to 12.9 ± 2.73 mM; in [2], 9.21 ± 0.054 mM; in data set [3], 3.51 ± 0.12 mM; in [4], 8.17 ± 0.15 mM; in [5] it was 6.64 ± 0.18 mM; in data set [6] it was 5.65 ± 0.96 mM. Further, the IC50 came to 8.04 ± 0.71 mM in data set [7] and 3.46 ± 0.33 mM in data set [8]. The “cell proliferation inhibitory capability on addition of an autophagy inhibitor” value in data set [9] and in data set [10] was “such an effect is absent” each time. Also, in data set [11], the “cytotoxic / antitumor activity on A549 low folate receptor-expressing cells” value was “strong cytotoxic activity”. In data set [12], the cellular uptake entry is given as “almost no cellular intake”. Also, the “survival in two-time administration model compared with one-time administration model” value in data set [13] (FIG. 14 compared with FIG. 13, FA-HP-β-CyD 3 mg/kg) is given as “an extension in survival was not observed”. Moreover, the “P versus the vehicle group (survival)” value is 0.182 in [13] (administered two times, first and second week, FA-HP-β-CyD 3 mg/kg (FIG. 14)); 0.0746 in data set [13] (single administration in the second week, FA-HP-β-CyD 3 mg/kg (FIG. 13)).
